Results: US20100278907A1, “Immunogenic Compositions Containing Ceramide and Methods of Use Thereof” (Medical College of Georgia Research Institute, Inc, priority 2008, published 2010)
Like-named read-outs stand apart in the source and are kept apart here.

Experiments:
[1] = tested on: ceramide levels in F11 cells; experiment: Immunocytochemistry for ceramide in treated F11 cells; assay type: cell-based
Experimental: (§1) For immunocytochemistry, F11 cells were grown on coverslips. Cells were incubated with myriocin for 3 days to inhibit de novo ceramide biosynthesis and reduce ceramide levels. To determine whether the antibody would cross-react with glycosphingolipids in the membrane, cells were incubated for 4 days with […] N-butyl-deoxynojirimycin (NB-dNJ), a glucosylceramide (GlcCer) synthase inhibitor known to inhibit glycosphingolipid biosynthesis. Control and myriocin- or NB-dNJ-treated cells were fixed with 4% p-formaldehyde in PBS for 20 min at room temperature. To release endogenous ceramide from sphingomyelin, fixed cells were incubated for 1 hour at 37° C. with 0.3 units (1 U/ml) of Staphylococcus aureus sphingomyelinase. Immunocytochemistry for ceramide was performed without the use of detergent for permeabilization. […] Confocal fluorescence microscopy was performed using a Zeiss LSM510 confocal laser scanning microscope equipped with a two photon argon laser at 488 nm (Cy2), 543 inn (Cy3), or 633 nm (Alexa Fluor: 647). […] Cells were washed with PBS, and stained cells were analyzed by flow cytometry, measuring the fluorescence emission at 530 nm. […]

[2] = cited from earlier work
[3] = repeated lung lavage; given together with surfactant; cited from earlier work
[4] = LPS model; cited from earlier work
[5] = tested on: TNF-α effect on endothelium-dependent vasorelaxation; details: cited from earlier work
[6] = tested on: ceramide levels in F11 cells; experiment: Flow cytometry of F11 cells stained with anti-ceramide rabbit IgG; assay type: cell-based; details: F11 cells incubated with myriocin, stained with rabbit IgG fraction; FIG. 2
Experimental: as §1

[7] = tested on: ceramide levels in F11 cells; experiment: Ceramide levels by high-performance thin-layer chromatography; assay type: cell-based; details: myriocin incubation of F11 cells for 3 days; HPTLC
[8] = acid-induced acute lung injury; cited from earlier work
[9] = tested on: Aβ biogenesis; details: cited from earlier work

Compound: CCCCN1C[C@H](O)[C@@H](O)[C@H](O)[C@H]1CO [NB-dNJ, N-butyl-deoxynojirimycin]
- intensity of the ceramide immunostaining signal ([1]; F11 cells incubated for 4 days with 250 mM NB-dNJ): not changed significantly

Compound: CCCCCCCCCCCCC/C=C/[C@@H](O)[C@H](CO)NC(C)=O [C2-ceramide, N-acetyl sphingosine]
- ischaemic preconditioning-like protection ([2]; cell-permeable C2-ceramide compared with TNF-α preconditioning): TNF-a protection is reproduced

Compound: CN(C)CCCN1c2ccccc2CCc2ccccc21 [imipramine]
- duration of the beneficial effect [3]: 24 h
- edema formation [3]: ameliorates
- oxygenation [3]: advances
- pulmonary inflammation [4]: attenuated

Compound: CCCCCCCC/C=C\CCCCCCCC(=O)NCCO [N-oleoylethanolamine]
- effect on preconditioning-like protection provided by TNF-a or C2-ceramide ([2]; ceramidase inhibitor): hinders
- effect on protection induced by ischaemic preconditioning ([2]; ceramidase inhibitor): does not hinder

Compound: CNCCCN1c2ccccc2CCc2ccccc21 [desipramine]
- effect on TNF-α inhibition of endothelium-dependent vasorelaxation [5]: neutralizes

Compound: CCCCCCC(=O)CCCCCC/C=C/C[C@@H](O)[C@H](O)[C@@](N)(CO)C(=O)O [myriocin]
- reduction of fluorescence intensity compared with control cells [6]: about 40%
- reduction of ceramide levels [7]: about 50%
- intensity of the ceramide immunostaining signal ([1]; F11 cells incubated with myriocin for 3 days, rabbit IgG and polyclonal IgM): reduced

Compound: S=C(S)OC1CC2CC1C1CCCC21 (stereo not shown) [D609, tricyclodecan-9-yl-xanthate]
- oxygenation [8]: improves
- pulmonary edema [8]: attenuates
- protection from ischaemia-induced cell death ([2]; administered before the ischaemic period): reproduces preconditioning protection
- mortality [4]: attenuated
- pulmonary edema formation [4]: attenuated

Compound: CCCCCCCCCCCCC/C=C/[C@@H](O)[C@H](CO)NC(=O)CCCCC [C6 ceramide, N-hexanoylsphingosine]
- Aβ generation ([9]; FB1 treated cells): restored
- biogenesis of Aβ ([9]; exogenous C6 ceramide): promoted
